Experimental findings from publication PMC12419465, “Photoresponsive molecular tweezers modulate Taspase 1 activity” (RSC Chemical Biology, 2025) are described below.

Read-outs that look alike come from different tables or passages of the source.

The target in the assay is T1, wildtype Taspase 1 (Homo sapiens, UniProt Q9H6P5).
T1 sequence (Q9H6P5 1-233 limits assumed): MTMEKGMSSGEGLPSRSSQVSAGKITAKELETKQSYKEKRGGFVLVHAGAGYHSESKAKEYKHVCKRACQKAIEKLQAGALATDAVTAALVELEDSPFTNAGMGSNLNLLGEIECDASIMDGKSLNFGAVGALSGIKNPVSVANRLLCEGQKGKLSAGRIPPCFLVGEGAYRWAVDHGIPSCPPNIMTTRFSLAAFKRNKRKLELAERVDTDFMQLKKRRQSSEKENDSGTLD
T1 sequence (Q9H6P5 234-420 limits assumed): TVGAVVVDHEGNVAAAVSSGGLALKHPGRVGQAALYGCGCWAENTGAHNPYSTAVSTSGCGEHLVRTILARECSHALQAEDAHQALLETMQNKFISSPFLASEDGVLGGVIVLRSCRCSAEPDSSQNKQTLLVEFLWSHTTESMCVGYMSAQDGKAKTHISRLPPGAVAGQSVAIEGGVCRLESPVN
As to the kind of experiment: Recombinant cleavage assay with GST-MLL2700–2850-GFP-His substrate. The class given is biochemical. Conditions: for IC50: ligand conc. 10 - 100 µM, 200 nM Taspase 1, 5 µM substrate, n = 3, read-out: IC50 TW (recombinant cleavage, full-length protein); for Difference in inhibitory activity between E and Z isomers (times greater potency of E isomer): particularly at 50 μM. As to the method:
The recombinant cleavage assay employing the recombinant fusion protein GST-MLL2700–2850-GFP-His, which contains the CS2 cleavage site of the Mixed-lineage leukemia (MLL) protein as a substrate for Taspase 1, was performed as described.[9,10]
Given that Taspase 1's active site is positioned directly at the base of the loop harboring the bipartite NLS (Fig. 1A, and Fig. S1), it is reasonable to expect that our photoswitchable tweezer constructs, which recognize this signal, might also influence proteolytic activity - similar to the inhibition observed with our “first-generation” multivalent ligands.[10] In principle the presence of a sterically demanding artificial ligand may hinder or even completely block substrate binding and subsequent cleavage. To assess this, we employed a well-established in vitro cleavage assay using a recombinant, truncated fusion protein harboring the second cleavage site (CS2) of the Mixed Lineage Leukemia 1 (MLL1) protein, a bona fide Taspase 1 substrate.[39] In this assay, the cleaved and uncleaved substrate fractions of the GST-MLL2700–2850-GFP-His substrate were separated on a Coomassie-stained gel, and signal intensities of the different cleavage bands were quantified (Fig. 7, Fig. S8, and Fig. S9). The addition of recombinant, proteolytically active Taspase 1 (200 nM) led to efficient substrate cleavage, which was inhibited by all photoswitchable tweezer constructs in a concentration-dependent manner. IC50 values for the full series of switchable tweezer constructs ranged from 20 to 50 μM, with measurements taken separately for both E and Z isomers Fig. (S9).
Fig. 7 Switchable tweezer constructs interfere with Taspase 1 proteolytic activity. Cleavage assay utilizing the cleavage site CS2 from the natural substrate MLL (GST-MLL2700–2850-GFP-His) and active wildtype Taspase 1. Inhibition of proteolysis was evaluated by the relative amount of uncleaved substrate. Briefly, 5 μM recombinant substrate were incubated with 200 nM wildtype Taspase 1-His and increasing concentrations of TWAAP0-4 (10 - 100 μM), pre-irradiated with either UV light (365 nm, violet), or green light (520 nm, green), or solvent only. Proteolytic activity in solvent-treated samples was set to 100%, and data from TWAAP-treated samples were normalized accordingly. IC50 values were determined by densitometric quantification of the cleavage bands from the gels shown in Fig. S9, followed by nonlinear curve fitting. These values were also used to generate the summary bar plots shown on the right. Data are shown as the mean ± SD from three independent experiments. Composed with https://BioRender.com.
Figure S8. Photoswitchable TWAAP constructs interfere with Taspase 1’s proteolytic activity.
Cleavage assay utilizing the cleavage site CS2 from the natural substrate MLL (GST -MLL2700-2850-GFP-His, 70 kDa) and active wildtype Taspase 1. Inhibition of proteolysis was evaluated by the relative amount of uncleaved in relation to cleaved substrate (50 kDa and 20 kDa, respectively). Briefly, 5 µM recombinant substrate were incubated with 200 nM wildtype Taspase 1-His and increasing concentrations (10 - 100 µM) of indicated TWAAP irradiated with UV (365 nm, left gel panels) or green light (520 nm, right gel panels). Solvent-treated samples (referred to as untreated, un.) served as reference, and as additional controls, Taspase 1 (-T) was omitted or only Taspase 1 (TASP1) was applied. Representative images of three independent experiments are shown. Composed with […]
Figure S9. Photoswitchable TWAAB constructs interfere with Taspase 1’s proteolytic activity. Cleavage assay utilizing the cleavage site CS2 from the natural substrate MLL (GST -MLL2700-2850-GFP-His, 70 kDa) and active wildtype Taspase 1. Inhibition of proteolysis was evaluated by the relative amount of uncleaved in relation to cleaved substrate (50 kDa and 20 kDa, respectively).
Briefly, 5 µM recombinant substrate were incubated with 200 nM wildtype Taspase 1-His and […]

Turning to `Cc1nn(-c2ccc(-n3cc(CCOP(=O)(O)Oc4c5c(c(OP(=O)(O)O)c6c4C4CC6c6cc7c(cc64)C4CC7c6ccccc64)C4CC5c5cc6c(cc54)C4CC6c5ccccc54)nn3)cc2)c(C)c1N=Nc1ccc(-n2cc(CCOP(=O)(O)Oc3c4c(c(OP(=O)(O)O)c5c3C3CC5c5cc6c(cc53)C3CC6c5ccccc53)C3CC4c4cc5c(cc43)C3CC5c4ccccc43)nn2)cc1` [TWAAP0], the “Difference in inhibitory activity between E and Z isomers (times greater potency of E isomer)” value was 1.5–1.7 times. Moreover, the IC50 (E isomer) turned out to be 25.9 µM. Also, where the note is “Z isomer”, the IC50 stood at 44.6 µM.
Consider `Cc1nn(Cc2cn(CCOP(=O)(O)Oc3c4c(c(OP(=O)(O)O)c5c3C3CC5c5cc6c(cc53)C3CC6c5ccccc53)C3CC4c4cc5c(cc43)C3CC5c4ccccc43)nn2)c(C)c1N=Nc1ccc(-c2cn(CCOP(=O)(O)Oc3c4c(c(OP(=O)(O)O)c5c3C3CC5c5cc6c(cc53)C3CC6c5ccccc53)C3CC4c4cc5c(cc43)C3CC5c4ccccc43)nn2)cc1` [TWAAP2], for which the “Difference in inhibitory activity between E and Z isomers (times greater potency of E isomer)” value is “no difference”. Further, under “E isomer”, the IC50 was 17.5 µM. For the setting “Z isomer”, the IC50 came out at 25.4 µM.
The corresponding values for `Cc1nn(-c2ccc(-c3cn(CCOP(=O)(O)Oc4c5c(c(OP(=O)(O)O)c6c4C4CC6c6cc7c(cc64)C4CC7c6ccccc64)C4CC5c5cc6c(cc54)C4CC6c5ccccc54)nn3)cc2)c(C)c1N=Nc1ccc(-c2ccc(-c3cn(CCOP(=O)(O)Oc4c5c(c(OP(=O)(O)O)c6c4C4CC6c6cc7c(cc64)C4CC7c6ccccc64)C4CC5c5cc6c(cc54)C4CC6c5ccccc54)nn3)cc2)cc1` [TWAAP3] are “no difference”, 49.4 µM and 41.9 µM.
The corresponding values for `Cc1nn(-c2ccc(C#Cc3ccc(-c4cn(CCOP(=O)(O)Oc5c6c(c(OP(=O)(O)O)c7c5C5CC7c7cc8c(cc75)C5CC8c7ccccc75)C5CC6c6cc7c(cc65)C5CC7c6ccccc65)nn4)cc3)cc2)c(C)c1N=Nc1ccc(C#Cc2ccc(-c3cn(CCOP(=O)(O)Oc4c5c(c(OP(=O)(O)O)c6c4C4CC6c6cc7c(cc64)C4CC7c6ccccc64)C4CC5c5cc6c(cc54)C4CC6c5ccccc54)nn3)cc2)cc1` [TWAAP4] are 1.5–1.7 times, 24.7 µM and 37.9 µM.
In the case of `O=P(O)(O)Oc1c2c(c(OP(=O)(O)OCCn3cc(-c4ccc(N=Nc5ccc(-c6cn(CCOP(=O)(O)Oc7c8c(c(OP(=O)(O)O)c9c7C7CC9c9cc%10c(cc97)C7CC%10c9ccccc97)C7CC8c8cc9c(cc87)C7CC9c8ccccc87)nn6)cc5)cc4)nn3)c3c1C1CC3c3cc4c(cc31)C1CC4c3ccccc31)C1CC2c2cc3c(cc21)C1CC3c2ccccc21` [TWAB1], the “Difference in inhibitory activity between E and Z isomers (times greater potency of E isomer)” value is on record as “no difference”. Besides, the IC50 (E isomer) was 22.3 µM. For the same compound, where the note is “Z isomer”, the IC50 is 17.9 µM.

As a reminder, the IC50 is the concentration needed to halve the response being measured.
